Assay results from PubChem BioAssay (NCI).
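GI50 is the concentration that inhibits growth by half. At the TGI there is no net growth.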

Legend:
Assay in all cases: NCI-60 cell line screen, 384-well format
[1] = system: NCI-H522 lung
[2] = system: SNB-75 CNS
[3] = system: SNB-19 CNS
[4] = system: DU-145 prostate
[5] = system: SK-MEL-5 melanoma
[6] = system: RXF 393 renal
[7] = system: PC-3 prostate
[8] = system: SK-OV-3 ovarian
[9] = system: SK-MEL-2 melanoma
[10] = system: RPMI-8226 leukemia
[11] = system: SK-MEL-28 melanoma
[12] = system: OVCAR-4 ovarian
[13] = system: NCI-H226 lung
[14] = system: OVCAR-3 ovarian
[15] = system: SN12C renal
[16] = system: KM12 colon
[17] = system: SF-295 CNS
[18] = system: HCC-2998 colon
[19] = system: LOX IMVI melanoma
[20] = system: MALME-3M melanoma
[21] = system: 786-0 renal
[22] = system: A498 renal
[23] = system: TK-10 renal
[24] = system: COLO 205 colon
[25] = system: MDA-MB-435 melanoma
[26] = system: SW-620 colon
[27] = system: MDA-MB-231 breast
[28] = system: HL-60(TB) leukemia
[29] = system: CCRF-CEM leukemia
[30] = system: U251 glioblastoma

NC(=O)Nc1cc(-c2cccc(F)c2)sc1C(=O)N[C@H]1CCCNC1
GI50 [1]: 128 nM
TGI [1]: 589 nM
GI50 [2]: 188 nM
TGI [2]: 1260 nM
GI50 [3]: 377 nM
TGI [3]: 2290 nM
GI50 [4]: 290 nM
TGI [4]: 1340 nM
GI50 [5]: 127 nM
TGI [5]: 408 nM
GI50 [6]: 12.1 nM
TGI [6]: 43.2 nM
GI50 [7]: 259 nM
TGI [7]: 3960 nM
GI50 [8]: 136 nM
TGI [8]: 380 nM
GI50 [9]: 108 nM
TGI [9]: 284 nM
GI50 [10]: 34.9 nM
TGI [10]: 186 nM
GI50 [11]: 1500 nM
TGI [11]: 8600 nM
GI50 [12]: 69.6 nM
TGI [12]: 348 nM
GI50 [13]: 508 nM
TGI [13]: 2300 nM
GI50 [14]: 103 nM
TGI [14]: 539 nM
GI50 [15]: 130 nM
TGI [15]: 968 nM
GI50 [16]: 22 nM
TGI [16]: 228 nM
GI50 [17]: 142 nM
TGI [17]: 461 nM
GI50 [18]: 10.6 nM
TGI [18]: 149 nM
GI50 [19]: 359 nM
TGI [19]: 1240 nM
GI50 [20]: 185 nM
TGI [20]: 1740 nM
GI50 [21]: 179 nM
TGI [21]: 1050 nM
GI50 [22]: 32.3 nM
TGI [22]: 144 nM
GI50 [23]: 109 nM
TGI [23]: 357 nM
GI50 [24]: 261 nM
TGI [24]: 1080 nM
GI50 [25]: 143 nM
TGI [25]: 302 nM
GI50 [26]: 595 nM
TGI [26]: 2120 nM
GI50 [27]: 300 nM
TGI [27]: 1570 nM
GI50 [28]: 120 nM
TGI [28]: 245 nM
GI50 [29]: 40.4 nM
TGI [29]: 192 nM
GI50 [30]: 385 nM
